Reference: paper PMC3578862, “Single Residue Mutation in Active Site of Serine Acetyltransferase Isoform 3 from Entamoeba histolytica Assists in Partial Regaining of Feedback Inhibition by Cysteine” (PLoS ONE, 2013)

Key:
[1] = target: T1, Serine acetyltransferase isoform 3 (EhSAT3) (Entamoeba histolytica, UniProt Q401L4, S208H); test: SAT activity assay at […] nm, […] serine; […] inhibition at […]; format: biochemical
T1 construct: gene SAT 3

[2] = target: T2, Serine acetyltransferase isoform 1 (EhSAT1) (Entamoeba histolytica, UniProt Q9U8X2, H208S); test: SAT activity assay at […] nm, […] serine; format: biochemical
T2 construct: gene EhSAT

N[C@@H](CO)C(=O)O = test: purified protein; format: biochemical, Entamoeba histolytica; conditions: acetyl coenzyme A active site

| Compound | IC50 [1] | IC50 [2] | Km (N[C@@H](CO)C(=O)O) |
| --- | --- | --- | --- |
| N[C@@H](CS)C(=O)O [L-cysteine] | 3.5 mM | 170 µM | – |
| Serine acetyltransferase isoform 1 (EhSAT1) (Entamoeba histolytica; H208S) | – | – | 68.4 µM |
| Serine acetyltransferase isoform 3 (EhSAT3) (Entamoeba histolytica; S208H) | – | – | 185.5 µM |
